Values quoted from earlier work as cited in US20240156825A1, “USE OF SELECTIVE VEGFR2 AND FGFR1 INHIBITORS” (Fountain Therapeutics Inc., priority 2022, published 2024).
pIC50: −log10 of the molar value. Where two headings read alike, the source gives them in different places.

Assays:
[1] = test system: any gene target; conditions: read-out: Min IC50_μM, cited from earlier work
[2] = target: VEGFR2 (Homo sapiens, UniProt P35968); conditions: reported IC50 to VEGFR2, read-out: VEGFR2 IC50_μM, cited from earlier work
[3] = next lowest IC50 value to any gene target, Table 3
[4] = Table 3, selective inhibitors of VEGFR2
[5] = next lowest IC50 value to any gene target
[6] = lowest reported IC50 to any gene target
[7] = Table 2, lowest reported IC50 to any gene target

VEGFR2, sequence (P35968 20-1356, species assumed): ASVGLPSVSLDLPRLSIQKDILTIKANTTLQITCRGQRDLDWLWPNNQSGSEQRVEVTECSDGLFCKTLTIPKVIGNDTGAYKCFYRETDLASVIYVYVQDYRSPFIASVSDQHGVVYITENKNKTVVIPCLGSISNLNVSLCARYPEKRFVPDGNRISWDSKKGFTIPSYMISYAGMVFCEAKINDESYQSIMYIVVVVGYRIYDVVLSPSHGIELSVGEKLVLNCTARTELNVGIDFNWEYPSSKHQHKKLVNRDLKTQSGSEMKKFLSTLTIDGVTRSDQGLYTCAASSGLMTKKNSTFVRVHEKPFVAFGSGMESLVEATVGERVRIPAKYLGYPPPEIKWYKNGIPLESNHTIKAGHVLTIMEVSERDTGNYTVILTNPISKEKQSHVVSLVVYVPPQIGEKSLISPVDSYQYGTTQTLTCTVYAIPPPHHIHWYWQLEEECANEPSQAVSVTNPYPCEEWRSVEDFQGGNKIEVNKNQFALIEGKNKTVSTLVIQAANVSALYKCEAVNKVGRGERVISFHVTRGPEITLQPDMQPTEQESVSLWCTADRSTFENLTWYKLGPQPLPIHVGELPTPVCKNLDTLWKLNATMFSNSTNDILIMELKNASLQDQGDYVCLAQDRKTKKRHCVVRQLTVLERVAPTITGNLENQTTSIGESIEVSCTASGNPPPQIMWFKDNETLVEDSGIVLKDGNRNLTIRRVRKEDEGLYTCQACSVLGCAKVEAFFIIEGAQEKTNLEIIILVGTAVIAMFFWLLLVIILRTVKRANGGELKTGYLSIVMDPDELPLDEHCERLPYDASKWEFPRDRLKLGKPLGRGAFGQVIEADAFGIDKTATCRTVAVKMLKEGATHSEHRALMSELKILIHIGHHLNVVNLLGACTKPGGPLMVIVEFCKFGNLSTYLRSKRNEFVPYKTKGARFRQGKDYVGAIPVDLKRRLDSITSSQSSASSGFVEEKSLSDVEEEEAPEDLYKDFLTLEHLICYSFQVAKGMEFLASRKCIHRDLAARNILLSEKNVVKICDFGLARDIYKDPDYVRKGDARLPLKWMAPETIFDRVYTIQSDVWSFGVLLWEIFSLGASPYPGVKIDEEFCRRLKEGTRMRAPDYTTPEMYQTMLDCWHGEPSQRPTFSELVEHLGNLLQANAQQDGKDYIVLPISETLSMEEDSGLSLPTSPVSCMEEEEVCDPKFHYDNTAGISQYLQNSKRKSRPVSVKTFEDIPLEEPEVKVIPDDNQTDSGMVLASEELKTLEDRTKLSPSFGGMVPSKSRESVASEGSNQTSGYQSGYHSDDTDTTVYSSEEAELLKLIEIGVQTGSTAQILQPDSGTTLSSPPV

SMILES	pIC50 [1, 5]	pIC50 [2]	further results
COc1ccc(NC(=O)Nc2ccc3c(c2)NC(=O)/C3=C\c2[nH]cc(C(=O)O)c2C)cc1 [compound 46898039]	–	–	pIC50 [1, 3]: 9.30; pIC50 [2, 4]: 9.30
COc1cc2c(Nc3cc(Cl)c(Cl)cc3F)ncnc2cc1OC[C@@H]1CN2CCC[C@H]2CO1 [compound 53630919]	–	–	pIC50 [1, 3]: 7.30; pIC50 [2, 4]: 7.30
CCOc1cc2c(Nc3ccc(Cl)c(Cl)c3)ncnc2cc1OCC1CN(C)CCO1 (stereo not drawn) [compound 57802695]	7.30	7.30	–
COc1cc2c(Nc3ccc(Cl)c(Cl)c3)ncnc2cc1OCC1CN(C)C(C)(C)CO1 (stereo not drawn) [compound 57802660]	7.30	7.30	–
COc1cc2c(Nc3ccc(Cl)c(Cl)c3Cl)ncnc2cc1OCC1CN(C)CCO1 (stereo not drawn) [compound 57802801]	7.30	7.30	–
COc1cc(C2=C(c3cn(COCc4ccccc4)c4ccccc34)CNC2=O)cc(OC)c1OC [compound 24894993]	5.77	5.80	–
COc1cc2c(Nc3ccc(Cl)c(Cl)c3)ncnc2cc1OCc1csc(N2CCN(C)CC2)n1 [compound 57802910]	–	–	pIC50 [1, 3]: 7.30; pIC50 [2, 4]: 7.30
CCN1CCCOC(COc2cc3ncnc(Nc4ccc(Cl)c(Cl)c4)c3cc2OC)C1 (stereo not drawn) [compound 57802623]	–	–	pIC50 [1, 3]: 7.30; pIC50 [2, 4]: 7.30
COc1cc2c(Nc3ccc(Br)c(Cl)c3)ncnc2cc1OCC1CN(C)CCO1 (stereo not drawn) [compound 57802766]	7.30	7.30	–
COc1cc2c(Nc3ccc(Br)cc3F)ncnc2cc1OCCC1CCNCC1 [compound 5329054]	–	–	pIC50 [1, 3]: 7.40; pIC50 [2, 4]: 7.40
COc1cc2c(Nc3ccc(Cl)c(Cl)c3)ncnc2cc1OCC1CN(C(N)=NC#N)CCO1 (stereo not drawn) [compound 57802878]	–	–	pIC50 [1, 3]: 7.30; pIC50 [2, 4]: 7.30
C[C@@H](Nc1ncnc2[nH]c(-c3ccc(OCCCC(=O)NO)cc3)cc12)c1ccccc1 [compound 24900506]	7.00	7.00	–
COc1cc2c(Nc3ccc(Cl)c(Cl)c3F)ncnc2cc1OC[C@@H]1CN(C)CC(=O)N1C [compound 57802574]	–	–	pIC50 [1, 3]: 7.30; pIC50 [2, 4]: 7.30
COc1cc(C2=C(c3cn(COc4ccccc4)c4ccccc34)CNC2=O)cc(OC)c1OC [compound 24894997]	5.77	5.82	–
COc1cc2c(Nc3cc(Cl)c(Cl)cc3F)ncnc2cc1OC[C@@H]1CO[C@H]2[C@@H]1OC[C@@H]2OC [compound 66954904]	–	–	pIC50 [1, 3]: 7.30; pIC50 [2, 4]: 7.30
COc1cc2c(Nc3ccc(F)c(Cl)c3F)ncnc2cc1OC[C@@H]1CN2CCC[C@H]2CO1 [compound 58013819]	–	–	pIC50 [1, 3]: 7.30; pIC50 [2, 4]: 7.30
CCC(=O)N1CCOC(COc2cc3ncnc(Nc4ccc(Cl)c(Cl)c4)c3cc2OC)C1 (stereo not drawn) [compound 57802906]	–	–	pIC50 [1, 3]: 7.30; pIC50 [2, 4]: 7.30
COc1cc2c(Nc3ccc(Cl)c(Cl)c3)ncnc2cc1OCc1csc(C2CCNCC2)n1 [compound 53630972]	–	–	pIC50 [1, 3]: 7.30; pIC50 [2, 4]: 7.30
COc1cc2c(Nc3c(F)cc(Cl)cc3F)ncnc2cc1OCC1CCNCC1 [compound 5329050]	7.00	7.40	–
COc1cc2c(Nc3ccc(Cl)c(Cl)c3)ncnc2cc1OCC1CN2CCOCC2CO1 (stereo not drawn) [compound 58013804]	–	–	pIC50 [1, 3]: 7.30; pIC50 [2, 4]: 7.30
COc1cc2c(Nc3ccc(Cl)cc3F)ncnc2cc1OCCN1CCN(C)CC1 [compound 4913175]	7.00	7.52	–
COc1cc2c(Nc3c(F)cc(Br)cc3F)ncnc2cc1OCC1CCNCC1 [compound 5329051]	7.15	7.82	–

SMILES	pIC50 [1, 5]	pIC50 [2]	further results
COc1cc2c(Nc3ccc(Cl)c(Cl)c3F)ncnc2cc1OC[C@@H]1CN2CCC[C@@H]2C(=O)N1 [compound 53630924]	–	–	pIC50 [1, 3]: 7.30; pIC50 [2, 4]: 7.30
COc1cc2c(Nc3ccc(Cl)c(Cl)c3)ncnc2cc1OCC1CN(C(=O)c2cccnc2Cl)CCO1 (stereo not drawn) [compound 57802694]	7.30	7.30	–
COc1cccc(-c2ccc3c(c2)NC(=O)/C3=C\c2[nH]c3c(c2CCC(=O)O)CCCC3)c1 [compound 5329169]	7.00	7.15	–
COCCNC(=O)c1cccc2cc(Oc3ccnc4cc(OC)c(OC)cc34)ccc12 [compound 11362483]	7.14	7.92	–
COc1cc2c(Nc3c(F)cc(Cl)cc3F)ncnc2cc1OCC1CCN(C)CC1 [compound 5329045]	7.22	7.60	–
COc1cc2c(Nc3ccc(Cl)cc3F)ncnc2cc1OC[C@@H]1CCCN(C)C1 [compound 5329055]	7.10	8.30	–
COc1cc2c(Nc3ccc(Br)c(Cl)c3C)ncnc2cc1OCC1CN(C)CCO1 (stereo not drawn) [compound 57802867]	–	–	pIC50 [1, 3]: 7.30; pIC50 [2, 4]: 7.30
COc1cc2c(Nc3ccc(Cl)c(Cl)c3)ncnc2cc1OCC1CN(C)C(C)(C)C(=O)O1 (stereo not drawn) [compound 57802818]	–	–	pIC50 [1, 3]: 7.30; pIC50 [2, 4]: 7.30
Cc1c2ccc(N(C)c3ccnc(Nc4cccc(S(N)(=O)=O)c4)n3)cc2nn1C [compound 24949700]	5.85	8.25	–
C[C@@H](Nc1ncnc2[nH]c(-c3ccc(CN4CCN(CCCC(=O)NO)CC4)cc3)cc12)c1ccccc1 [compound 24900378]	6.00	7.00	–
CCS(=O)(=O)N1CCOC(COc2cc3ncnc(Nc4ccc(Cl)c(Cl)c4)c3cc2OC)C1 (stereo not drawn) [compound 57802817]	–	–	pIC50 [1, 3]: 7.30; pIC50 [2, 4]: 7.30
COc1cc2c(Nc3ccc(F)c(Cl)c3F)ncnc2cc1OC[C@H]1CN2CCOC[C@H]2CO1 [compound 10028639]	–	–	pIC50 [1, 3]: 7.30; pIC50 [2, 4]: 7.30
CS(=O)(=O)Cc1cccc(Nc2nccc(Oc3ccc4c(C(=O)Nc5cccnc5)cccc4c3)n2)c1 [compound 127037812]	8.31	9.30	–
COc1cc2c(Nc3ccc(Cl)c(Cl)c3)ncnc2cc1OCC1CN(C(=NC#N)N2CCCCC2)CCO1 (stereo not drawn) [compound 57802736]	7.30	7.30	–
COc1cc2ncnc(Nc3ccc(Cl)cc3)c2cc1OCCCC(=O)NO [compound 127027096]	6.16	6.74	–
c1ccc(-c2cnn3cc(-c4ccc(OCCN5CCOCC5)cc4)cnc23)cc1 [compound 5329447]	7.49	8.05	–
Cc1ccc(NC(=O)c2ccc(C(C)(C)C)s2)cc1Nc1nc2ccccc2n1-c1cc(N)ncn1 [compound 15949617]	8.40	8.40	–
C[C@@H](Nc1ncnc2[nH]c(-c3ccc(CN4CCN(CCCCCC(=O)NO)CC4)cc3)cc12)c1ccccc1 [compound 24900442]	7.00	7.00	–
CN1CC(=Cc2ccccn2)C(=O)C(=Cc2ccccn2)C1 [compound 2132479]	5.72	5.89	–
COc1cc2c(Nc3ccc(Br)cc3F)ncnc2cc1OCCn1ccnn1 [compound 5329032]	–	7.52	–
CONC(=O)c1cc(Nc2ncnn3cc(-c4nnc(C(C)C)o4)c(C(C)C)c23)c(F)cc1F [compound 11442803]	–	–	pIC50 [1, 6]: 9.00
Nc1[nH]nc2nccc(-c3ccc(NC(=O)Nc4cccc(C(F)(F)F)c4)cc3)c12 [compound 11495270]	8.70	–	–

SMILES	pIC50 [1, 5]	pIC50 [2]	further results
CNC(=O)c1cccc2cc(Oc3ccnc4cc(OC)c(OC)cc34)ccc12 [compound 11749561]	6.96	–	–
COc1ccc(Cl)c(N(CCNC(C)C)c2ccc3ncc(-c4cnn(C)c4)nc3c2)c1 [compound 134153603]	–	–	pIC50 [1, 7]: 8.43
CNCCN(c1cc(OC)cc(OC)c1)c1ccc2ncc(-c3cnn(C(C)C)c3)nc2c1 [compound 134133926]	–	–	pIC50 [1, 7]: 8.54
COc1cccc(N(CCNC(C)C)c2ccc3ncc(-c4cnn(C)c4)nc3c2)c1 [compound 134138612]	–	–	pIC50 [1, 6]: 8.14
Cc1n[nH]c2sc(C(=O)NCc3ccccc3)cc12 [compound 44405941]	4.80	–	–
COc1cc(OC)cc(N(CCN2CCC(N)C2)c2ccc3ncc(-c4cnn(C)c4)nc3c2)c1 (stereo not drawn) [compound 134157853]	–	–	pIC50 [1, 7]: 8.70
COc1cc(OC)cc(N(CCN2[C@@H](C)CC[C@@H]2C)c2ccc3ncc(-c4cnn(C)c4)nc3c2)c1 [compound 89447247]	–	–	pIC50 [1, 6]: 8.42
COc1cc(OC)cc(N(CCCN)c2ccc3ncc(-c4cn[nH]c4)nc3c2)c1 [compound 68208813]	–	–	pIC50 [1, 7]: 8.93
COc1cc(OC)cc(N(CCN2CCC(CCO)CC2)c2ccc3ncc(-c4cnn(C)c4)nc3c2)c1 [compound 68208907]	–	–	pIC50 [1, 7]: 8.54
O=C(Nc1cccc(C(F)(F)F)c1)c1ccccc1NCc1ccncc1 [compound 6398883]	7.74	–	–
COc1cc(OC)cc(N(CC#CC2(O)CCNCC2)c2ccc3ncc(-c4cnn(C)c4)nc3c2)c1 [compound 89447547]	–	–	pIC50 [1, 6]: 8.15
COc1cc(OC)cc(N(CCNCCO)c2ccc3ncc(-c4cnn(C)c4)nc3c2)c1 [compound 68209464]	–	–	pIC50 [1, 7]: 8.65
COc1cc2c(Nc3ccc(Cl)c(Cl)c3F)ncnc2cc1OC[C@@H]1CN2CCCC[C@@H]2C(=O)N1 [compound 57802634]	–	–	pIC50 [1, 3]: 7.30
c1ccc(-c2cnc3c(Nc4ccc(N5CCCCC5)cc4)cncc3n2)cc1 [compound 127030424]	5.63	–	–
COc1cc(OC)cc(N(CC#Cc2cccc(N)n2)c2ccc3ncc(-c4cnn(C)c4)nc3c2)c1 [compound 67466417]	–	–	pIC50 [1, 7]: 7.37
COc1ccc(OC)c(N(CCNC(C)C)c2ccc3ncc(-c4cnn(C)c4)nc3c2)c1 [compound 54591211]	–	–	pIC50 [1, 7]: 6.82
CNC(=O)c1ccccc1Sc1ccc2c(/C=C/c3ccccn3)n[nH]c2c1 [compound 6450551]	–	–	pIC50 [1, 3]: 10.00
COc1cc(OC)cc(N(CC(O)CN2CCCCC2)c2ccc3ncc(-c4cnn(C)c4)nc3c2)c1 (stereo not drawn) [compound 68209482]	–	–	pIC50 [1, 6]: 8.53
CCN(CC)CCN(c1cc(OC)cc(OC)c1)c1ccc2ncc(-c3cnn(C)c3)nc2c1 [compound 68208850]	–	–	pIC50 [1, 7]: 8.52
COc1cc(OC)cc(N(CCN2CCC[C@H]2C)c2ccc3ncc(-c4cnn(C)c4)nc3c2)c1 [compound 134145938]	–	–	pIC50 [1, 7]: 8.70
